From PubChem BioAssay (NCI)
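Cultured in 96-well plates, cells were exposed to test compound for 48 hours across five concentrations. GI50 marks 50% less growth. TGI: concentration producing complete growth inhibition.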

Columns and labels:
Experiment in all cases: DTP human tumour cell line panel, 48 h
786-0 renal = system: 786-0 renal
A498 renal = system: A498 renal
A549 NSCLC = system: A549 NSCLC
ACHN renal = system: ACHN renal
BT-549 breast = system: BT-549 breast
CAKI-1 renal = system: CAKI-1 renal
CCRF-CEM leukemia = system: CCRF-CEM leukemia
COLO 205 colon = system: COLO 205 colon
DU-145 prostate = system: DU-145 prostate
EKVX NSCLC = system: EKVX NSCLC
HCC-2998 colon = system: HCC-2998 colon
HCT-116 colon = system: HCT-116 colon
HCT-15 colon = system: HCT-15 colon
HL-60(TB) leukemia = system: HL-60(TB) leukemia
HOP-62 NSCLC = system: HOP-62 NSCLC
HOP-92 NSCLC = system: HOP-92 NSCLC
HS 578T breast = system: HS 578T breast
HT29 colon = system: HT29 colon
IGROV1 ovarian = system: IGROV1 ovarian
K-562 leukemia = system: K-562 leukemia
KM12 colon = system: KM12 colon
LOX IMVI melanoma = system: LOX IMVI melanoma
M14 melanoma = system: M14 melanoma
MALME-3M melanoma = system: MALME-3M melanoma
MCF7 breast = system: MCF7 breast
MDA-MB-231 breast = system: MDA-MB-231 breast
MDA-MB-435 = system: MDA-MB-435
MDA-MB-468 breast = system: MDA-MB-468 breast
MOLT-4 leukemia = system: MOLT-4 leukemia

Cn1cc(NC(=O)c2cc(NC(=O)c3ccc(C#Cc4ccccc4)cc3)cn2C)cc1C(=O)NCCCN1CCOCC1
GI50 (786-0 renal): 9.11 µM | TGI (786-0 renal): 29.5 µM | GI50 (A498 renal): > 32.5 µM | TGI (A498 renal): > 32.5 µM | GI50 (A549 NSCLC): 20 µM | TGI (A549 NSCLC): > 32.5 µM | GI50 (ACHN renal): 16.4 µM | TGI (ACHN renal): > 32.5 µM | GI50 (BT-549 breast): 5.22 µM | TGI (BT-549 breast): 20 µM | GI50 (CAKI-1 renal): 17.5 µM | TGI (CAKI-1 renal): > 32.5 µM | GI50 (CCRF-CEM leukemia): 6.76 µM | TGI (CCRF-CEM leukemia): > 32.5 µM | GI50 (COLO 205 colon): > 32.5 µM | TGI (COLO 205 colon): > 32.5 µM | GI50 (DU-145 prostate): 11.6 µM | TGI (DU-145 prostate): > 32.5 µM | GI50 (EKVX NSCLC): 10.6 µM | TGI (EKVX NSCLC): > 32.5 µM | GI50 (HCC-2998 colon): 11.9 µM | TGI (HCC-2998 colon): > 32.5 µM | GI50 (HCT-116 colon): 8.36 µM | TGI (HCT-116 colon): > 32.5 µM | GI50 (HCT-15 colon): 5.47 µM | TGI (HCT-15 colon): 13.7 µM | GI50 (HL-60(TB) leukemia): 5.19 µM | TGI (HL-60(TB) leukemia): 32.3 µM | GI50 (HOP-62 NSCLC): 18 µM | TGI (HOP-62 NSCLC): > 32.5 µM | GI50 (HOP-92 NSCLC): 5.05 µM | TGI (HOP-92 NSCLC): 20.4 µM | GI50 (HS 578T breast): 7.04 µM | TGI (HS 578T breast): > 32.5 µM | GI50 (HT29 colon): 6.62 µM | TGI (HT29 colon): 22.9 µM | GI50 (IGROV1 ovarian): > 32.5 µM | TGI (IGROV1 ovarian): > 32.5 µM | GI50 (K-562 leukemia): 8.4 µM | TGI (K-562 leukemia): > 32.5 µM | GI50 (KM12 colon): 11.2 µM | TGI (KM12 colon): > 32.5 µM | GI50 (LOX IMVI melanoma): 4.94 µM | TGI (LOX IMVI melanoma): 9.38 µM | GI50 (M14 melanoma): 12.6 µM | TGI (M14 melanoma): > 32.5 µM | GI50 (MALME-3M melanoma): 13.3 µM | TGI (MALME-3M melanoma): > 32.5 µM | GI50 (MCF7 breast): 6.15 µM | TGI (MCF7 breast): 30.8 µM | GI50 (MDA-MB-231 breast): 10.3 µM | TGI (MDA-MB-231 breast): > 32.5 µM | GI50 (MDA-MB-435): 9.91 µM | TGI (MDA-MB-435): > 32.5 µM | GI50 (MDA-MB-468 breast): 7.75 µM | TGI (MDA-MB-468 breast): 25.5 µM | GI50 (MOLT-4 leukemia): 8.41 µM | TGI (MOLT-4 leukemia): > 32.5 µM
